The values that follow come from a melting point compilation (Tetko et al.; mined from patent text by program, amines drawn as free bases though some values may be those of a salt).

With `COc1c(C(N)=O)oc2c3ccccc3n(C)c12`, the melting point (as a rule, the temperature of the solid-liquid transition) fell in the range of 174 to 177 °C.
The value for `Cc1c(NC(=O)c2ccc(-c3ccc(F)cc3)cc2)ccc2cc(CN3CCC(CCCC(N)=O)CC3)cnc12` was 232 to 234 °C.
Next, `O=C(Oc1ccc([N+](=O)[O-])cc1)C(O)C(O)C(=O)Oc1ccc([N+](=O)[O-])cc1` (configuration not stated): 163 to 164 °C; `CC(=O)OC[C@H]1O[C@@H](c2ccc(C)c(Cc3ccc(-c4ccc(F)cc4)s3)c2)[C@H](OC(C)=O)[C@@H](OC(C)=O)[C@@H]1OC(C)=O`: 160 to 170 °C.
The value for `COc1ccc2cccc(NC(C)=O)c2c1` was 154 to 155 °C; that for `O=C(O)c1cc(-n2c(-c3ccccc3)cc3c2CCCC3)cc(Cl)c1O` was 223 to 225 °C; that for `CCCCN(CCCC)C(=O)CCCC1(C(=O)NCCC)c2ccccc2-c2ccccc21` was 109 to 111 °C.
Take `CON(C)C(=O)Nc1c(C(=O)c2cc(C)ccn2)[nH]c2cc(Cl)ccc12`: the melting point was in the range of 199 to 200 °C.
The value for `NC(=O)c1ccc2c(c1)C(=O)c1ccccc1C2=O` was 299 °C; that for `CN1CCC2(CC1)Nc1ccccc1S2` was 135 to 140 °C.
Next, `Nc1nccc(-c2c[nH]c3nccc(OC4CCCCC4)c23)n1`: greater than 210 °C; `COC(=O)C1=C(N)NC(C)=C([N+](=O)[O-])C1c1ccccc1S(=O)(=O)CCCCCl` (configuration not stated): 218 °C.
The value for `CC(C)N(C[C@@H](O)[C@@H](C(=O)[C@H](CC(N)=O)NC(=O)c1ccccc1)C(N)c1ccccc1)NC(=O)OC(C)(C)C` (some centres not stated) was 182 to 185 °C.
For the compound `CC1(C)C(C)(C)C1(Cl)c1ccccn1`, the melting point was in the range of 100 to 102 °C.
Regarding `CCc1cc(Cc2cc(CC)c(N)c(C)c2Cl)c(Cl)c(C)c1N`, the melting point fell in the range of 115 to 117 °C.
The value for `COC(=O)N=C(NC(=O)OC)Nc1ccc(SCC(C)C)cc1NC(=O)CSC` was 138 to 140 °C; that for `CC(=O)NC(Cc1ccccc1)C1CC(Cc2ccccc2)=NO1` (configuration not stated) was 97.8 to 98.4 °C.
Next, `CN(CCC=C1c2ccccc2C=Cc2ccccc21)CCC(=O)O`: 119 to 120 °C; `CC(=O)c1cn(Cc2ccccc2)c(=O)n(Cc2ccc(F)cc2)c1=O`: 106 to 108 °C; `COn1cc(C(=O)O)c(=O)c2c3sc(=O)n(C)c3ccc21`: greater than 300 °C.
The value for `N#Cc1cncc(-c2ccc(OCc3ccccc3)cc2)c1Nc1ccc2[nH]ccc2c1` was 163 to 165 °C.
Regarding `Cc1nc(-c2cn(CCc3ccc(F)cc3)nn2)sc1C(=O)NCc1cccnc1`, the melting point was 149 to 150 °C.
The value for `c1ccc(OCCSCc2nnc(-c3ccc(OCCCCN4CCSCC4)cc3)o2)cc1` was 58 °C.
The compound `CN1CCC(c2n[nH]c3cc(Cl)ccc23)CC1` showed a melting point of 211 to 213 °C.
In turn, `N#Cc1ccc2c(c1)CCC=C2n1ccnc1` yielded a melting point of 152 to 153 °C.
Next, `C=CCc1cc2c(cc1O)C(C)(C)C(CCO)O2` (configuration not stated): 55 to 58 °C; `CCCN(CCC)[C@H]1Cc2ccc(OCC)cc2[C@@H]1O`: 74 to 75 °C; `Cc1cc(C2(C(F)(F)F)CC2(C#N)C#N)ccc1NC(=O)c1cccc(I)c1C(=O)NC(C)C` (configuration not stated): 218 to 221 °C.
The value for `COCCOc1cc2ncnc(NC3=CC(=O)C(OCc4ccccc4)=CC3=O)c2cc1OC` was 218 to 220 °C.
Next, `Cc1ncn(-c2ccc(C#N)c(F)c2)n1`: 133 to 134 °C.
As to `CCCc1c(OCCCCCCc2cccc(OC(C)=O)c2OC(C)=O)ccc(C(=O)O)c1O`, the melting point fell in the range of 120 to 122 °C.
The value for `Cc1ccc(C(=O)NC(NC(=S)Nc2cccnc2)C(C)(C)C)cc1` (configuration not stated) was 168 to 169 °C; that for `CNc1cc(Oc2ccc(NC(=O)Nc3ccc(-c4cccc(C)n4)c(C(F)(F)F)c3)cc2)ncn1` was 106 to 109 °C.
Compound `N#CC(C(=O)c1ccc(-c2ccc(Cl)cc2)cc1)=C1CCCCN1` gave a melting point of 134 °C.
Next, `CN(Cc1ccccc1)c1nc(=O)n(C(=O)c2cccs2)cc1F`: 101 to 102 °C; `O=C(Nc1cc(C(=O)O)cc(-c2ccccc2)c1)OCc1cc2cc(-c3ccccc3)ccc2o1`: 174 to 175 °C.
The value for `CCNC(=O)n1ncc2ccc(OC(C)=O)c(CC3CO3)c21` (configuration not stated) was 110 to 111 °C; that for `O=C(O)CCCc1cccc2c1OC=CO2` was 75 to 76 °C; that for `COCCc1sc(C(C)(O)c2nc(C)c(CCOC)s2)nc1C` was 50 to 51 °C.
The value for `CCS(=O)(=O)C(F)(F)C(O)(Cn1cncn1)c1ccc(F)cc1F` (configuration not stated) was 117 to 118 °C.
The compound `O=C1CC(CCO)c2ccccc2N1` (configuration not stated) showed a melting point of 119 to 120 °C.
`COc1cc2c(cc1OC)C(C)(C)Oc1c-2c(OC)cc2oc(C(=O)O)cc(=O)c12`: the melting point fell in the range of 263 to 264 °C.
The value for `CN1C(=O)C(C)(C)C(=O)Nc2cc(C=O)ccc21` was 208 to 210 °C.
The value for `CCOC(=O)CCCCn1c(=O)n(CCN2CCN(c3ccccc3OC)CC2)c(=O)c2sccc21` was 118 to 119 °C; that for `N#CC=Cc1ccc(NC(=O)C=CC=C(Nc2cc(Cl)cc(Cl)c2I)C(=O)OCc2ccccc2)cc1` was 132 to 134 °C.
Compound `Cc1cnc2c(c1)C[C@H](Cc1ccc(O)cc1)CC2` showed a melting point of 157 to 158 °C.
Next, `CCOC(=O)/C=C/c1cn(-c2ccccc2)nc1OCc1ccc(OCc2nc(-c3ccccc3)oc2C)cc1`: 154 to 155 °C; `CN(Cc1cc(C(F)(F)F)cc(C(F)(F)F)c1)C(=O)c1c(Cl)nc2ccccc2c1-c1ccccc1`: 147 to 148 °C; `CCCCCCCCCCCCCCCCCCNC(=O)NCCCCCCCCN`: 120 to 145 °C.
Compound `CN1C(N2CCCCC2)=C2N=c3cc(Cl)ccc3=C2Oc2ccccc21` came in with a melting point of 244 to 245 °C.
The value for `CCCCc1csc2ccc3[nH]c4c(c3c12)CN(Cc1ccccc1)CC4` was 127 to 128 °C; that for `Cc1cccc(C)c1C(=O)NC(C)(C)C` was 134 to 136 °C.
Take `CC(=O)Nc1nc(CCc2ccc(NC(NC(=O)OC(C)(C)C)NC(=O)OC(C)(C)C)cc2)c(Cl)s1`: the melting point lay in the range of 220 to 221 °C.
Next, `CCOC(=O)Cc1c[nH]c2cc(C3CC3)nn2c1=O`: 280 to 283 °C.
The value for `COc1cc(NC2CCN(Cc3ccccc3)CC2)ccc1C(N)=O` was 155 to 157 °C; that for `CCCCCCOc1ccc(Nc2ncc(F)c(Nc3ccc4c(c3)OCCO4)n2)cc1` was 115 to 117 °C.
The value for `O=C(O)Cc1c(C(=O)c2ccc(OC(F)(F)F)cc2)[nH]c2cc(Cl)ccc12` was 166 to 168 °C.
`CN(C)C=Nc1c(-c2c(F)cc(F)cc2F)c(Cl)nc2ncnn12` came in with a melting point of 188 to 190 °C.
Next, `OCCC(O)(c1ccc(Br)cc1)c1cccnc1` (configuration not stated): 130 to 132 °C.
Compound `OCC1OC(n2cnc3c2N=CNCC3O)C(O)C1O` (configuration not stated) showed a melting point of 178 to 183 °C.
The compound `COC(=O)C1CN(C(=O)c2ccc(OC(F)(F)F)cc2)c2cc(Cl)ccc2CN1S(=O)(=O)c1ccc(OC)cc1` (configuration not stated) displayed a melting point of 149 to 151 °C.
Next, `CCOc1ccc2[nH]c(C)cc2c1O`: 77 to 78 °C.
